We go through four molecules from patent publication US20240197725A1, “METHOD AND COMPOSITION FOR THE PREVENTION OR TREATMENT OF OSTEOARTHRITIS” (Rhode Island Hospital, priority 2021, published 2024).

The target of data set [1] is T1, SHP2 (Homo sapiens, UniProt Q06124). The note with it: read-out: SHP2 IC50; cited from earlier work.
The target of data set [2] is T2, SHP2 (Mus musculus, UniProt P35235).
T2 construct: endogenous in cells; host or cells: Prg4+ murine articular cartilage (AC) cells
T2 sequence (P35235 whole entry): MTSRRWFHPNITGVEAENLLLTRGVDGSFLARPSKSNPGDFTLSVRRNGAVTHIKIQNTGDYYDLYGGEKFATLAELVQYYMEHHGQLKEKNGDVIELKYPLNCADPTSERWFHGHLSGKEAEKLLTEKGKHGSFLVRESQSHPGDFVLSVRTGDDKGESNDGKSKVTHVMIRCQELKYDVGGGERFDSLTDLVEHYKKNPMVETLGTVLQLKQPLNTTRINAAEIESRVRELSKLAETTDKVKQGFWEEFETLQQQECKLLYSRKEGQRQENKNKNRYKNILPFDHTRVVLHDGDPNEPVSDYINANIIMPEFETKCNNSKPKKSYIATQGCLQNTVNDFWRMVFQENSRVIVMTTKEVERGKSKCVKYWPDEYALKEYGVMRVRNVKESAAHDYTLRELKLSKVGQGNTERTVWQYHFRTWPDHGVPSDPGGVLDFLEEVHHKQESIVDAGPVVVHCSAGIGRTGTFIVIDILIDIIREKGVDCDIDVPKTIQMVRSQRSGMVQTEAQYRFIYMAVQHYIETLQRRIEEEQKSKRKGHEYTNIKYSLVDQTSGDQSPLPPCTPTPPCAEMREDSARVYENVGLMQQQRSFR
As to the kind of experiment: SHP2 degradation in Prg4+ articular cartilage cells (Western blot). Conditions: chondrocytes, a week after withdrawal. It is filed as cell-based, murine.

The test system of data set [3] is murine articular cartilage cells. As to the kind of experiment: Cell viability (WST1) of articular cartilage cells. It is filed as cell-based. The note with it: concentrations as high as 1 μM, 48 hrs, WST1, n=3. The procedure: With respect to toxicity, murine articular cartilage cells were treated with indicated concentration of SHP2D26 for 48 hrs. Cell viabilities were measured using WST1 (n=3).

Data set [4] concerns the target T1, SHP2. More on the design: host or cells: esophageal cancer cells (endogenous SHP2). Conditions: cited from earlier work.

pIC50: −log10 of the molar value. Like-named read-outs stand apart in the source and are kept apart here.

T1 sequence (Q06124 whole entry): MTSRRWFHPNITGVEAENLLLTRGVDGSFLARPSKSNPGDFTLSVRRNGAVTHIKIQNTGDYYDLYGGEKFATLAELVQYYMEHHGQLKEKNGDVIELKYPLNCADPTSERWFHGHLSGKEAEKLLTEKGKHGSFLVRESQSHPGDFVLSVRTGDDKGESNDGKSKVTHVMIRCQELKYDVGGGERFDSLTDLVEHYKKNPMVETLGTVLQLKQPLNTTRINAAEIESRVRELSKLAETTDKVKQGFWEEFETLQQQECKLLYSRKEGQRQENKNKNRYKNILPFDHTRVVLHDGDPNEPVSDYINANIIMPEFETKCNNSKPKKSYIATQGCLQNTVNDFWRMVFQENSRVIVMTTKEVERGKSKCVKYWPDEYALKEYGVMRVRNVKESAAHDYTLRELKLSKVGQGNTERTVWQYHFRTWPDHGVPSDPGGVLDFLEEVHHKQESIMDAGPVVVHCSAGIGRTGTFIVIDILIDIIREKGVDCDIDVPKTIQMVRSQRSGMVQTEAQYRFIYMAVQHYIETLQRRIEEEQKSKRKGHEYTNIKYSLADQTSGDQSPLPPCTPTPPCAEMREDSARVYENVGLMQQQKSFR

Take `O=C1/C(=N\Nc2ccc(S(=O)(=O)O)cc2)C(c2ccc([N+](=O)[O-])cc2)=NN1c1ccc([N+](=O)[O-])cc1` [GS-493, 4-((2 Z)-2-(1,3-bis (4-Nitrophenyl)-5-oxo-1,5-dihydro-4H-pyrazol-4-yliden)hydrazino) benzenesulfonic acid, (Z)-4-(2-(1,3-bis(4-Nitrophenyl)-5-oxo-1H-pyrazol-4(5H)-ylidene)hydrazinyl)benzenesulfonic acid]: the pIC50 (in general, the IC50 on a negative log10 scale, so that one unit is a factor of ten) at SHP2 [1] was 4.15.
As to `O=c1c2ccccc2n2c(-c3ccccc3O)nnc2n1Cc1ccccc1Cl` [SHP357], the pIC50 on SHP2 [1] is less than 4.00.
Consider `C[C@@H]1OCC2(CCN(c3nc4[nH]nc(-c5ccnc(NC6CC6)c5Cl)c4c(=O)n3C)CC2)[C@@H]1N` [SHP389, 6-((3S,4S)-4-Amino-3-methyl-2-oxa-8-azaspiro[4.5]decan-8-yl)-3-(3-chloro-2-(cyclopropylamino)pyridin-4-yl)-5-methyl-2,5-dihydro-4H-pyrazolo[3,4-d]pyrimidin-4-one], for which, at SHP2 [1], the pIC50 was 4.44.
For `Cc1ncsc1-c1ccc([C@H](C)NC(=O)[C@@H]2C[C@@H](O)CN2C(=O)[C@@H](NC(=O)CCCCCCCCN2CCN(C(=O)CCC(=O)Nc3cccc(Sc4ncc(N5CCC(C)(N)CC5)nc4N)c3Cl)CC2)C(C)(C)C)cc1` [SHP-D26, (2S,4R)-1-((S)-2-(9-(4-(4-((3-((3-amino-5-(4-amino-4-methylpiperidin-1-yl)pyrazin-2-yl)thio)-2-chlorophenyl)amino)-4-oxobutanoyl)piperazin-1-yl)nonanamido)-3,3-dimethylbutanoyl)-4-hydroxy-N-((S)-1-(4-(4-methylthiazol-5-yl)phenyl)ethyl)pyrrolidine-2-carboxamide], the “SHP2 recovered after complete withdrawal of compound from culture medium” value at SHP2 [2] is on record as “about 50%”. Also, the cell viability entry in data set [3] was “did not compromise cell viability”. The DC50 is 2.6 nM at SHP2 [4] (acute myeloid leukemia MV4, 11 cells, read-out: DC50); 6 nM on SHP2 [4] (esophageal cancer KYSE520 cells, read-out: DC50); 2.6 to 6 nM at SHP2 [4] (range over the cancer cell lines, read-out: SHP2 DC50).
